Reference: patent US9695155B2, “Herbicidal substituted pyrimidinyloxy benzene compounds” (E. I. DU PONT DE NEMOURS AND COMPANY, priority 2013, dated 2017)

Tests used:
canarygrass = experiment: Test D preemergence; format: in vivo, Phalaris minor
Text: (§1) Seeds of plant species selected from bluegrass (annual bluegrass, Poa annua), blackgrass (Alopecurus myosuroides), canarygrass (littleseed canarygrass, Phalaris minor), chickweed (common chickweed, Stellaria media), galium (catchweed bedstraw, Galium aparine), bromegrass, downy (downy bromegrass, Bromus tectorum), field poppy (Papaver rhoeas), field violet (Viola arvensis), green foxtail (Setaria viridis), deadnettle (henbit deadnettle, Lamium amplexicaule), Italian ryegrass (Lolium multiflorum), kochia (Kochia scoparia), lambsquarters (Chenopodium album), oilseed rape (Brassica napus), pigweed (Amaranthus retroflexus), chamomile (scentless chamomile, Matricaria inodora), Russian thistle (Salsola kali), speedwell (bird's-eye speedwell, Veronica persica), spring barley (Hordeum vulgare), spring wheat (Triticum aestivum), wild buckwheat (Polygonum convolvulus), wild mustard (Sinapis arvensis), wild oat (Avena fatua), wild radish (Raphanus raphanistrum), windgrass (Apera spica-venti), winter barley (Hordeum vulgare), and winter wheat (Triticum aestivum) were planted into a silt loam soil and treated preemergence with test chemicals formulated in a non-phytotoxic solvent mixture which included a surfactant.
(§2) At the same time, these species were planted in pots containing Redi-Earth® planting medium (Scotts Company, 14111 Scottslawn Road, Marysville, Ohio 43041) comprising spaghnum peat moss, vermiculite, wetting agent and starter nutrients and treated with postemergence applications of the test chemicals formulated in the same manner. Plants ranged in height from 2 to 18 cm (1- to 4-leaf stage). Treated plants and controls were maintained in a controlled growth environment for 7 to 21 days after which time all species were compared to controls and visually evaluated. Plant response ratings, summarized in Table D, are based on a scale of 0 to 100 where 0 is no effect and 100 is complete control. A dash (-) response means no test result.

galium = experiment: Test D preemergence; format: in vivo, Galium aparine
Text: as §1, §2

wild mustard = experiment: Test D postemergence; format: in vivo, Sinapis arvensis
Text: as §1, §2

blackgrass = experiment: Test D preemergence; format: in vivo, Alopecurus myosuroides
Text: as §1, §2

oilseed rape = experiment: Test D preemergence; format: in vivo, Brassica napus
Text: as §1, §2

deadnettle = experiment: Test D preemergence; format: in vivo, Lamium amplexicaule
Text: as §1, §2

field violet = experiment: Test D postemergence; format: in vivo, Viola arvensis
Text: as §1, §2

[1] = Phalaris minor, pre-emergence, 31 g ai/ha, scale 0-100, read-out: Plant response rating, Canarygrass
[2] = Phalaris minor, pre-emergence, 62 g ai/ha, scale 0-100, read-out: Plant response rating, Canarygrass
[3] = Phalaris minor, pre-emergence, 125 g ai/ha, scale 0-100, read-out: Plant response rating, Canarygrass
[4] = Galium, pre-emergence, 31 g ai/ha, scale 0-100, read-out: Plant response rating, Galium
[5] = Galium, pre-emergence, 62 g ai/ha, scale 0-100, read-out: Plant response rating, Galium
[6] = Galium, pre-emergence, 125 g ai/ha, scale 0-100, read-out: Plant response rating, Galium
[7] = Brassica, post-emergence, 31 g ai/ha, scale 0 to 100 (0 no effect, 100 complete control), read-out: Plant response rating, Mustard, Wild
[8] = Brassica, post-emergence, 62 g ai/ha, scale 0 to 100 (0 no effect, 100 complete control), read-out: Plant response rating, Mustard, Wild
[9] = Brassica, post-emergence, 125 g ai/ha, scale 0 to 100 (0 no effect, 100 complete control), read-out: Plant response rating, Mustard, Wild
[10] = Alopecurus myosuroides, pre-emergence, 31 g ai/ha, scale 0-100, read-out: Plant response rating, Blackgrass
[11] = Alopecurus myosuroides, pre-emergence, 62 g ai/ha, scale 0-100, read-out: Plant response rating, Blackgrass
[12] = Alopecurus myosuroides, pre-emergence, 125 g ai/ha, scale 0-100, read-out: Plant response rating, Blackgrass
[13] = Brassica napus, pre-emergence, 31 g ai/ha, scale 0-100, read-out: Plant response rating, Oilseed Rape
[14] = Brassica napus, pre-emergence, 62 g ai/ha, scale 0-100, read-out: Plant response rating, Oilseed Rape
[15] = Brassica napus, pre-emergence, 125 g ai/ha, scale 0-100, read-out: Plant response rating, Oilseed Rape
[16] = Lamium amplexicaule, pre-emergence, 31 g ai/ha, scale 0-100, read-out: Plant response rating, Deadnettle
[17] = Lamium amplexicaule, pre-emergence, 62 g ai/ha, scale 0-100, read-out: Plant response rating, Deadnettle
[18] = Lamium amplexicaule, pre-emergence, 125 g ai/ha, scale 0-100, read-out: Plant response rating, Deadnettle
[19] = Viola arvensis, post-emergence, 31 g ai/ha, scale 0 to 100 (0 no effect, 100 complete control), read-out: Plant response rating, Field Violet
[20] = Viola arvensis, post-emergence, 62 g ai/ha, scale 0 to 100 (0 no effect, 100 complete control), read-out: Plant response rating, Field Violet
[21] = Viola arvensis, post-emergence, 125 g ai/ha, scale 0 to 100 (0 no effect, 100 complete control), read-out: Plant response rating, Field Violet
[22] = 16 g ai/ha, scale 0 (no effect) to 100 (complete control)
[23] = 31 g ai/ha, scale 0 to 100 (0 no effect, 100 complete control)
[24] = 62 g ai/ha, scale 0 to 100 (0 no effect, 100 complete control)
[25] = 125 g ai/ha, scale 0 to 100 (0 no effect, 100 complete control)

In the case of N#Cc1cccc(Oc2ncc(Cl)cn2)c1-n1cc(Br)cn1 [Compound 52, 2-(4-bromo-1H-pyrazol-1-yl)-3-[(5-chloro-2-pyrimidinyl)oxy]benzonitrile], the pest or weed control at 31 g/ha (canarygrass; [1]) is reported as 0%, the pest or weed control at 62 g/ha (canarygrass; [2]) is reported as 0% and the pest or weed control at 125 g/ha (canarygrass; [3]) is reported as 35%. The pest or weed control at 250 g/ha (canarygrass; Phalaris minor, pre-emergence, 250 g ai/ha, scale 0-100, read-out: Plant response rating, Canarygrass) was 55%, the pest or weed control at 31 g/ha (galium; [4]) was 10% and the pest or weed control at 62 g/ha (galium; [5]) was 20%. For the same compound, the pest or weed control at 125 g/ha (galium; [6]) was 75%, the pest or weed control at 250 g/ha (galium; Galium, pre-emergence, 250 g ai/ha, scale 0-100, read-out: Plant response rating, Galium) was 70% and the pest or weed control at 31 g/ha (wild mustard; [7]) was 70%. The pest or weed control at 62 g/ha (wild mustard; [8]) was 80%, the pest or weed control at 125 g/ha (wild mustard; [9]) was 95% and the pest or weed control at 250 g/ha (wild mustard; Brassica, post-emergence, 250 g ai/ha, scale 0 to 100 (0 no effect, 100 complete control), read-out: Plant response rating, Mustard, Wild) was 100%. For the same compound, the pest or weed control at 31 g/ha (blackgrass; [10]) was 5%, the pest or weed control at 62 g/ha (blackgrass; [11]) was 5% and the pest or weed control at 125 g/ha (blackgrass; [12]) was 30%. It also gave a pest or weed control at 250 g/ha (blackgrass; Alopecurus myosuroides, pre-emergence, 250 g ai/ha, scale 0-100, read-out: Plant response rating, Blackgrass) of 95%, a plant injury at 31 g/ha (oilseed rape; [13]) of 0% and a plant injury at 62 g/ha (oilseed rape; [14]) of 80%. The plant injury at 125 g/ha (oilseed rape; [15]) was 100%, the plant injury at 250 g/ha (oilseed rape; Brassica napus, pre-emergence, 250 g ai/ha, scale 0-100, read-out: Plant response rating, Oilseed Rape) was 100% and the pest or weed control at 31 g/ha (deadnettle; [16]) was 70%. For the same compound, the pest or weed control at 62 g/ha (deadnettle; [17]) was 75%, the pest or weed control at 125 g/ha (deadnettle; [18]) was 100% and the pest or weed control at 250 g/ha (deadnettle; Lamium amplexicaule, pre-emergence, 250 g ai/ha, scale 0-100, read-out: Plant response rating, Deadnettle) was 100%. It also gave a pest or weed control at 31 g/ha (field violet; [19]) of 100%, a pest or weed control at 62 g/ha (field violet; [20]) of 100% and a pest or weed control at 125 g/ha (field violet; [21]) of 100%. It also gave a pest or weed control at 250 g/ha (field violet; Viola arvensis, post-emergence, 250 g ai/ha, scale 0 to 100 (0 no effect, 100 complete control), read-out: Plant response rating, Field Violet) of 100%.

With Fc1cccc(Oc2ncc(Cl)cn2)c1-n1cc(C(F)F)nn1 [Compound 141, 5-chloro-2-[2-[4-(difluoromethyl)-1H-1,2,3-triazol-1-yl]-3-fluorophenoxy]pyrimidine] the pest or weed control at 16 g/ha (canarygrass; Phalaris minor, pre-emergence, 16 g ai/ha, scale 0 (no effect) to 100 (complete control), read-out: Plant response rating, Canarygrass) was 35%, the pest or weed control at 31 g/ha (canarygrass; [1]) was 75% and the pest or weed control at 62 g/ha (canarygrass; [2]) was 100%. It also gave a pest or weed control at 125 g/ha (canarygrass; [3]) of 100%, a pest or weed control at 16 g/ha (galium; Galium, pre-emergence, 16 g ai/ha, scale 0 (no effect) to 100 (complete control), read-out: Plant response rating, Galium) of 75% and a pest or weed control at 31 g/ha (galium; [4]) of 100%. The pest or weed control at 62 g/ha (galium; [5]) was 100%, the pest or weed control at 125 g/ha (galium; [6]) was 100% and the pest or weed control at 16 g/ha (wild mustard; Brassica, post-emergence, 16 g ai/ha, scale 0-100, read-out: Plant response rating, Mustard, Wild) was 80%. The pest or weed control at 31 g/ha (wild mustard; [7]) was 100%, the pest or weed control at 62 g/ha (wild mustard; [8]) was 100% and the pest or weed control at 125 g/ha (wild mustard; [9]) was 100%. The pest or weed control at 16 g/ha (blackgrass; Alopecurus myosuroides, pre-emergence, 16 g ai/ha, scale 0 (no effect) to 100 (complete control), read-out: Plant response rating, Blackgrass) was 40%, the pest or weed control at 31 g/ha (blackgrass; [10]) was 65% and the pest or weed control at 62 g/ha (blackgrass; [11]) was 90%. The pest or weed control at 125 g/ha (blackgrass; [12]) was 95%, the plant injury at 16 g/ha (oilseed rape; Brassica napus, pre-emergence, 16 g ai/ha, scale 0 (no effect) to 100 (complete control), read-out: Plant response rating, Oilseed Rape) was 100% and the plant injury at 31 g/ha (oilseed rape; [13]) was 100%. For the same compound, the plant injury at 62 g/ha (oilseed rape; [14]) was 100%, the plant injury at 125 g/ha (oilseed rape; [15]) was 100% and the pest or weed control at 16 g/ha (deadnettle; Lamium amplexicaule, pre-emergence, 16 g ai/ha, scale 0 (no effect) to 100 (complete control), read-out: Plant response rating, Deadnettle) was 90%. For the same compound, the pest or weed control at 31 g/ha (deadnettle; [16]) was 100%, the pest or weed control at 62 g/ha (deadnettle; [17]) was 98% and the pest or weed control at 125 g/ha (deadnettle; [18]) was 100%. The pest or weed control at 16 g/ha (field violet; Viola arvensis, post-emergence, 16 g ai/ha, scale 0-100, read-out: Plant response rating, Field Violet) was 45%, the pest or weed control at 31 g/ha (field violet; [19]) was 75% and the pest or weed control at 62 g/ha (field violet; [20]) was 85%. For the same compound, the pest or weed control at 125 g/ha (field violet; [21]) was 95%.

With FCc1cccc(Oc2ncc(Cl)cn2)c1-n1cc(I)cn1 [Compound 245] the “Plant response rating, Canarygrass” value (canarygrass; [22]) was 0, the “Plant response rating, Canarygrass” value (canarygrass; 31 g ai/ha, scale 0-100) was 0 and the “Plant response rating, Canarygrass” value (canarygrass; 62 g ai/ha, scale 0-100) was 15. For the same compound, the “Plant response rating, Canarygrass” value (canarygrass; 125 g ai/ha, scale 0-100) was 35, the “Plant response rating, Galium” value (galium; [22]) was 0 and the “Plant response rating, Galium” value (galium; 31 g ai/ha, scale 0-100) was 0. For the same compound, the “Plant response rating, Galium” value (galium; 62 g ai/ha, scale 0-100) was 5, the “Plant response rating, Galium” value (galium; 125 g ai/ha, scale 0-100) was 85 and the “Plant response rating, Mustard, Wild” value (wild mustard; 16 g ai/ha, scale 0-100) was 80. The “Plant response rating, Mustard, Wild” value (wild mustard; [23]) was 70, the “Plant response rating, Mustard, Wild” value (wild mustard; [24]) was 100 and the “Plant response rating, Mustard, Wild” value (wild mustard; [25]) was 98. For the same compound, the “Plant response rating, Blackgrass” value (blackgrass; [22]) was 0, the “Plant response rating, Blackgrass” value (blackgrass; 31 g ai/ha, scale 0-100) was 0 and the “Plant response rating, Blackgrass” value (blackgrass; 62 g ai/ha, scale 0-100) was 10. The “Plant response rating, Blackgrass” value (blackgrass; 125 g ai/ha, scale 0-100) was 65, the “Plant response rating, Oilseed Rape” value (oilseed rape; [22]) was 0 and the “Plant response rating, Oilseed Rape” value (oilseed rape; 31 g ai/ha, scale 0-100) was 0. For the same compound, the “Plant response rating, Oilseed Rape” value (oilseed rape; 62 g ai/ha, scale 0-100) was 30, the “Plant response rating, Oilseed Rape” value (oilseed rape; 125 g ai/ha, scale 0-100) was 100 and the “Plant response rating, Deadnettle” value (deadnettle; [22]) was 0. For the same compound, the “Plant response rating, Deadnettle” value (deadnettle; 31 g ai/ha, scale 0-100) was 0, the “Plant response rating, Deadnettle” value (deadnettle; 62 g ai/ha, scale 0-100) was 0 and the “Plant response rating, Deadnettle” value (deadnettle; 125 g ai/ha, scale 0-100) was 15. The “Plant response rating, Field Violet” value (field violet; 16 g ai/ha, scale 0-100) was 25, the “Plant response rating, Field Violet” value (field violet; [23]) was 80 and the “Plant response rating, Field Violet” value (field violet; [24]) was 90. The “Plant response rating, Field Violet” value (field violet; [25]) was 90.
